Reference: patent publication US20180117000A1, “ENERGY METABOLIC ACTIVATING AGENT FOR MUSCLE CELLS” (ORYZA OIL & FAT CHEMICAL CO., LTD., priority 2015, published 2018)
“Also recorded” adds a separate entry of the source.

Key:
[1] = system: sugar transporter (GLUT4); test: Evaluation of sugar-transporter (GLUT4) gene-expression promotion: GLUT4 mRNA by RT-PCR in C2C12; assay type: cell-based, Mouse; conditions: Compounds at 1 μM or 10 μM, C2C12 myoblast cells, cultured one week, GAPDH endogenous control, vs DMSO control, FIG. 2
Method: Mouse-muscle myoblast-cell lines C2C12 (cultured in DMEM FCS10%) were seeded in 24 well plates for determining the mRNA expression (1×10^4 cells/ml) and then were cultured for 24 hours. […] Then, the black-ginger extract and the separated fractions were cultured for one week. For control, the DMSO was added to the culture media in concentration of 0.1% (v/v). After being cultured for one week, the cells were collected, and the RNA was extracted. Regarding the collected RNA, by using RT-PCR (reverse-transcription polymerase chain-reaction), the expressed mRNA amount of the sugar transporter (GLUT4) was identified. At that time, as an endogenous-control, GAPDH (Glyceraldehyde 3-phosphate dehydrogenase) was used.

[2] = system: PGC-1α; test: Evaluation of the PGC-1α-expression promoting effect: PGC-1α mRNA by RT-PCR in C2C12; assay type: cell-based, Mouse; conditions: Compounds at 1 μM or 10 μM, C2C12 myoblast cells, cultured one week, GAPDH endogenous control, vs DMSO control, FIG. 3
Method: Mouse-muscle myoblast-cell lines C2C12 (cultured in DMEM FCS10%) were seeded in 24 well plates for determining the mRNA expression (1×10^4 cells/ml) and then were cultured for 24 hours. After 24 hours, the black-ginger extract (10 μg/mL) or the separated fractions (Compounds 1-8) were added to the culture media (DMEM FCS 1%) for differentiation induction until the concentration became 1 μM or 10 μM (i.e. until the concentration of the sample dissolved in each DMSO (dimethyl sulfoxide) became 0.1% (v/v) regarding the culture media). Then, the black-ginger extract and the separated fractions were cultured for one week. For control, the DMSO was added to the culture media in concentration of 0.1% (v/v). After being cultured for one week, the cells were collected, and the RNA was extracted. Regarding the collected RNA, by using RT-PCR (reverse-transcription polymerase-chain reaction), the expressed mRNA amount of the PGC-1α was identified. At that time, as an endogenous-control, GAPDH (Glyceraldehyde 3-phosphate dehydrogenase) was used.

Question: What does the source list for `COc1cc(O)c2c(=O)cc(-c3ccccc3)oc2c1` [Compound 2, Techtochrysin]?
Answer: mRNA expression of the sugar transporter (GLUT4) [1]: Significant expressed-promotion increases; mRNA expression of the PGC-1α [2]: Significant increases; also recorded: stronger activity

Question: For `COc1ccc(-c2oc3cc(OC)cc(O)c3c(=O)c2OC)cc1` [Compound 3, 3,7,4′-Trimethylkaempferol], which “mRNA expression of the sugar transporter (GLUT4)” value [1] is on record?
Answer: Significant expressed-promotion increases

Question: How did the “mRNA expression of the PGC-1α” value [2] turn out when `COc1cc(O)c2c(=O)c(OC)c(-c3ccc(OC)c(OC)c3)oc2c1` [Compound 4, retusine] was run?
Answer: lower activity

Question: For `COc1cc(OC)c2c(=O)cc(-c3ccccc3)oc2c1` [Compound 8, 5,7-dimethoxyflavone], which “mRNA expression of the sugar transporter (GLUT4)” value [1] is on record?
Answer: Significant expressed-promotion increases

Question: What about the “mRNA expression of the PGC-1α” value [2] of the same compound?
Answer: Significant increases; also recorded: stronger activity
